US7803769B2 (priority 2006, dated 2010)
Bridge positions count the residues as written; N and C are the ends. Square brackets hold non-standard residues; d marks the D form. Peptide text beside a SMILES is read from it. 1Nal = N[C@@H](Cc1cccc2ccccc12)C(=O)O

What was measured:
human Kv1.3 channel = human Kv1.3 channel (Homo sapiens, UniProt P22001); type: cell-based
human Kv1.1 (HEK293) = molecular target: T1, human Kv1.1 (HEK293) (Homo sapiens, UniProt Q09470); test: cell-based
T1 construct: expressed in transfected cells; host or cells: HEK293
T1 sequence (Q09470 whole entry): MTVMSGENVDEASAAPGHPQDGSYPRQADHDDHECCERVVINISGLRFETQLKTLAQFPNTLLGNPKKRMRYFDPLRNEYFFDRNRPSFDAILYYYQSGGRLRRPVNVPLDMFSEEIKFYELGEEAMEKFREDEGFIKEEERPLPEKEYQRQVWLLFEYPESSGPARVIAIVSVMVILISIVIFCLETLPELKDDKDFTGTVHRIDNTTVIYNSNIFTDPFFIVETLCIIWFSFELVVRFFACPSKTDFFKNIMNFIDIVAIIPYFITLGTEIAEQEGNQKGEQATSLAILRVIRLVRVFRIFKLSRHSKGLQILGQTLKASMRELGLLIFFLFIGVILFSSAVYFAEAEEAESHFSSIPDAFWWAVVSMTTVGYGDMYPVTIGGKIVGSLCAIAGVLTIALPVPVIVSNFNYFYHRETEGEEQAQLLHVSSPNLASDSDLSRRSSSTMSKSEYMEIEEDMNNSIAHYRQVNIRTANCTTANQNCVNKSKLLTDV

human Kv1.3 (CHO) = molecular target: T2, human Kv1.3 (CHO) (Homo sapiens, UniProt P22001); test: cell-based
T2 construct: expressed in transfected cells
T2 sequence (P22001 whole entry): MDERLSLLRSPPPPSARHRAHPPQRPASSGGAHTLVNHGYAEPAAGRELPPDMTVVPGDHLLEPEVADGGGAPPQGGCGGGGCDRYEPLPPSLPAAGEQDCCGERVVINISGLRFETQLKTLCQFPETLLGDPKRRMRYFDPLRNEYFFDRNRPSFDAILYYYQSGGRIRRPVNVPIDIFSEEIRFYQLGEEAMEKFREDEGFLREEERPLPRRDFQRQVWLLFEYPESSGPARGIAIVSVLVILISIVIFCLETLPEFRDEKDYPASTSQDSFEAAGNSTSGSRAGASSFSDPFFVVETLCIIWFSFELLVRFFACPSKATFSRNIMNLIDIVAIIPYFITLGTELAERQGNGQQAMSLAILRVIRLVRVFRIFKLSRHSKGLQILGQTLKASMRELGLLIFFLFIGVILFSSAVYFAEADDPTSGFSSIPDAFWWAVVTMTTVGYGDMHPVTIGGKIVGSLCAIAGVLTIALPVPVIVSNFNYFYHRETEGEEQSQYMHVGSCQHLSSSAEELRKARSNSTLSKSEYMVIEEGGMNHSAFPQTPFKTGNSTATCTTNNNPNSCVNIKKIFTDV

Chain of human Kv1.3 channel (P22001 whole entry): as above

Compound	difference in Kv1.3 potency compared to Fc-L10-OSK1 (human Kv1.3 channel) [fold]	fold less potent than the synthetic OSK1 toxin peptide (Kv1.3) (human Kv1.3 channel)	IC50 (human Kv1.1 (HEK293)) [nM]	IC50 (human Kv1.3 (CHO)) [nM]	block of human Kv1.3 current (in words) (human Kv1.3 channel)
Fc-L10-OSK1[K7S]: Fc-L10-OSK1 with lysine to serine at position 7	2	approximately 10 fold	–	–	–
CC[C@H](C)[C@H](NC(=O)[C@H](C)NC(=O)CN)C(=O)N[C@H](C(=O)N[C@@H](CC(N)=O)C(=O)N[C@H](C(=O)N[C@@H](CCCCN)C(=O)N[C@H]1CSSC[C@@H]2NC(=O)[C@H](CCCCN)NC(=O)CNC(=O)[C@H](Cc3ccccc3)NC(=O)[C@H](CCCNC(=N)N)NC(=O)[C@H](CCSC)NC(=O)CNC(=O)[C@H](C)NC(=O)[C@H](CCCCN)NC(=O)[C@H](CCCCN)NC(=O)[C@@H]3CSSC[C@@H](C(=O)N[C@H](C(=O)N4CCC[C@H]4C(=O)N[C@@H](CCCCN)C(=O)O)[C@@H](C)O)NC(=O)[C@H](Cc4c[nH]cn4)NC(=O)[C@H](CSSC[C@H](NC(=O)[C@H](CCC(N)=O)NC(=O)[C@H](CCCNC(=N)N)NC(=O)[C@H](CO)NC(=O)[C@H]([C@@H](C)CC)NC(=O)[C@H](CCCCN)NC1=O)C(=O)N[C@@H](CC(C)C)C(=O)N[C@@H](CCC(=O)O)C(=O)N1CCC[C@H]1C(=O)N3)NC(=O)[C@H](CCCCN)NC(=O)CNC(=O)[C@H](CC(N)=O)NC(=O)[C@H](CCSC)NC2=O)C(C)C)[C@@H](C)CC [V2A] (H-GAIINVKCKISRQCLEPCKKAGMRFGKCMNGKCHCTPK-OH; disulfide 8-28, 14-33, 18-35)	–	–	0.00994	0.0818	–
CC[C@H](C)[C@@H]1NC(=O)[C@H](CCCCN)NC(=O)[C@@H](NC(=O)[C@H](CCCCN)NC(=O)[C@@H](NC(=O)[C@H](CC(N)=O)NC(=O)[C@@H](NC(=O)[C@H](Cc2cccc3ccccc23)NC(=O)[C@@H](NC(=O)CN)C(C)C)[C@@H](C)CC)C(C)C)CSSC[C@@H]2NC(=O)[C@H](CCCCN)NC(=O)CNC(=O)[C@H](Cc3ccccc3)NC(=O)[C@H](CCCNC(=N)N)NC(=O)[C@H](CCSC)NC(=O)CNC(=O)[C@H](C)NC(=O)[C@H](CCCCN)NC(=O)[C@H](CCCCN)NC(=O)[C@@H]3CSSC[C@@H](C(=O)N[C@H](C(=O)N4CCC[C@H]4C(=O)N[C@@H](CCCCN)C(=O)O)[C@@H](C)O)NC(=O)[C@H](Cc4c[nH]cn4)NC(=O)[C@H](CSSC[C@H](NC(=O)[C@H](CCC(N)=O)NC(=O)[C@H](CCCNC(=N)N)NC(=O)[C@H](CO)NC1=O)C(=O)N[C@@H](CC(C)C)C(=O)N[C@@H](CCC(=O)O)C(=O)N1CCC[C@H]1C(=O)N3)NC(=O)[C@H](CCCCN)NC(=O)CNC(=O)[C@H](CC(N)=O)NC(=O)[C@H](CCSC)NC2=O [I3Nal] (H-GV[1Nal]INVKCKISRQCLEPCKKAGMRFGKCMNGKCHCTPK-OH; disulfide 8-28, 14-33, 18-35)	–	–	0.00234	0.0103	–
CC[C@H](C)[C@@H]1NC(=O)[C@H](CCCCN)NC(=O)[C@@H](NC(=O)[C@H](CCCCN)NC(=O)[C@@H](NC(=O)[C@H](CC(N)=O)NC(=O)[C@@H](NC(=O)[C@@H](NC(=O)[C@@H](NC(=O)CN)C(C)C)[C@@H](C)CC)[C@@H](C)CC)C(C)C)CSSC[C@@H]2NC(=O)[C@H](CCCCN)NC(=O)CNC(=O)[C@H](Cc3ccccc3)NC(=O)[C@H](CCCNC(=N)N)NC(=O)[C@H](Cc3cccc4ccccc34)NC(=O)CNC(=O)[C@H](C)NC(=O)[C@H](CCCCN)NC(=O)[C@H](CCCCN)NC(=O)[C@@H]3CSSC[C@@H](C(=O)N[C@H](C(=O)N4CCC[C@H]4C(=O)N[C@@H](CCCCN)C(=O)O)[C@@H](C)O)NC(=O)[C@H](Cc4c[nH]cn4)NC(=O)[C@H](CSSC[C@H](NC(=O)[C@H](CCC(N)=O)NC(=O)[C@H](CCCNC(=N)N)NC(=O)[C@H](CO)NC1=O)C(=O)N[C@@H](CC(C)C)C(=O)N[C@@H](CCC(=O)O)C(=O)N1CCC[C@H]1C(=O)N3)NC(=O)[C@H](CCCCN)NC(=O)CNC(=O)[C@H](CC(N)=O)NC(=O)[C@H](CCSC)NC2=O [M23Nal] (H-GVIINVKCKISRQCLEPCKKAG[1Nal]RFGKCMNGKCHCTPK-OH; disulfide 8-28, 14-33, 18-35)	–	–	0.0644	0.036	–
Fc-L10-OSK1[K7S,E16K,K20D]: Fc-L10-OSK1 with K7S, E16K and K20D substitutions	–	approximately 21 fold	–	–	significant decrease in potency as well as selectivity
CC[C@H](C)[C@@H]1NC(=O)[C@H](CCCCN)NC(=O)[C@@H](NC(=O)[C@H](CCCCN)NC(=O)[C@@H](NC(=O)[C@H](CC(N)=O)NC(=O)[C@@H](NC(=O)[C@@H](NC(=O)[C@@H](NC(=O)CN)C(C)C)[C@@H](C)CC)[C@@H](C)CC)C(C)C)CSSC[C@@H]2NC(=O)[C@H](CCCCN)NC(=O)CNC(=O)[C@H](Cc3ccccc3)NC(=O)[C@H](CCCNC(=N)N)NC(=O)[C@H](CCSC)NC(=O)CNC(=O)[C@H](C)NC(=O)[C@H](CCCCN)NC(=O)[C@H](CCCCN)NC(=O)[C@@H]3CSSC[C@@H](C(=O)N[C@H](C(=O)N4CCC[C@H]4C(=O)N[C@@H](CCCCN)C(=O)O)[C@@H](C)O)NC(=O)[C@H](Cc4c[nH]cn4)NC(=O)[C@H](CSSC[C@H](NC(=O)[C@H](CCC(N)=O)NC(=O)[C@H](CCCNC(=N)N)NC(=O)[C@H](CO)NC1=O)C(=O)N[C@@H](CC(C)C)C(=O)N[C@@H](CCC(=O)O)C(=O)N1CCC[C@H]1C(=O)N3)NC(=O)[C@H](CCCCN)NC(=O)CNC(=O)[C@H](CC(N)=O)NC(=O)[C@H](Cc1cccc3ccccc13)NC2=O [M29Nal] (H-GVIINVKCKISRQCLEPCKKAGMRFGKC[1Nal]NGKCHCTPK-OH; disulfide 8-28, 14-33, 18-35)	–	–	0.0469	0.0935	–
CC[C@H](C)[C@@H]1NC(=O)[C@H](CCCCN)NC(=O)[C@@H](NC(=O)[C@H](CCCCN)NC(=O)[C@H](CCCNC(=N)N)NC(=O)[C@H](CC(N)=O)NC(=O)[C@@H](NC(=O)[C@@H](NC(=O)[C@@H](NC(=O)CN)C(C)C)[C@@H](C)CC)[C@@H](C)CC)CSSC[C@@H]2NC(=O)[C@H](CCCCN)NC(=O)CNC(=O)[C@H](Cc3ccccc3)NC(=O)[C@H](CCCNC(=N)N)NC(=O)[C@H](CCSC)NC(=O)CNC(=O)[C@H](C)NC(=O)[C@H](CCCCN)NC(=O)[C@H](CCCCN)NC(=O)[C@@H]3CSSC[C@@H](C(=O)N[C@H](C(=O)N4CCC[C@H]4C(=O)N[C@@H](CCCCN)C(=O)O)[C@@H](C)O)NC(=O)[C@H](Cc4c[nH]cn4)NC(=O)[C@H](CSSC[C@H](NC(=O)[C@H](CCC(N)=O)NC(=O)[C@H](CCCNC(=N)N)NC(=O)[C@H](CO)NC1=O)C(=O)N[C@@H](CC(C)C)C(=O)N[C@@H](CCC(=O)O)C(=O)N1CCC[C@H]1C(=O)N3)NC(=O)[C@H](CCCCN)NC(=O)CNC(=O)[C@H](CC(N)=O)NC(=O)[C@H](CCSC)NC2=O [V6R] (H-GVIINRKCKISRQCLEPCKKAGMRFGKCMNGKCHCTPK-OH; disulfide 8-28, 14-33, 18-35)	–	–	0.0024	0.00865	–
CC[C@H](C)[C@@H]1NC(=O)[C@H](CCCCN)NC(=O)[C@@H](NC(=O)[C@H](CCCCN)NC(=O)[C@@H](NC(=O)[C@H](CC(N)=O)NC(=O)[C@@H](NC(=O)[C@@H](NC(=O)[C@@H](NC(=O)CN)C(C)C)[C@@H](C)CC)[C@@H](C)CC)C(C)C)CSSC[C@@H]2NC(=O)[C@H](CCCCN)NC(=O)CNC(=O)[C@H](Cc3ccccc3)NC(=O)[C@H](CCCNC(=N)N)NC(=O)[C@H](CCSC)NC(=O)CNC(=O)[C@H](C)NC(=O)[C@H](CCCCN)NC(=O)[C@H](CCCCN)NC(=O)[C@@H]3CSSC[C@@H](C(=O)N[C@H](C(=O)N4CCC[C@H]4C(=O)N[C@@H](CCCCN)C(=O)O)[C@@H](C)O)NC(=O)[C@H](Cc4c[nH]cn4)NC(=O)[C@H](CSSC[C@H](NC(=O)[C@H](CCC(N)=O)NC(=O)[C@H](CCCNC(=N)N)NC(=O)[C@H](CO)NC1=O)C(=O)N[C@@H](CC(C)C)C(=O)N[C@@H](CCC(=O)O)C(=O)N1CCC[C@H]1C(=O)N3)NC(=O)[C@H](CCCCN)NC(=O)[C@H](Cc1cccc3ccccc13)NC(=O)[C@H](CC(N)=O)NC(=O)[C@H](CCSC)NC2=O [G31Nal] (H-GVIINVKCKISRQCLEPCKKAGMRFGKCMN[1Nal]KCHCTPK-OH; disulfide 8-28, 14-33, 18-35)	–	–	< 0.00152	0.0338	–
CC[C@H](C)[C@@H]1NC(=O)[C@H](CCCCN)NC(=O)[C@@H](NC(=O)[C@H](CCCCN)NC(=O)[C@@H](NC(=O)[C@H](CC(N)=O)NC(=O)[C@@H](NC(=O)[C@@H](NC(=O)[C@@H](NC(=O)CN)C(C)C)[C@@H](C)CC)[C@@H](C)CC)C(C)C)CSSC[C@@H]2NC(=O)[C@H](CCCCN)NC(=O)CNC(=O)[C@H](Cc3ccccc3)NC(=O)[C@H](CCCNC(=N)N)NC(=O)[C@H](CCSC)NC(=O)CNC(=O)[C@H](C)NC(=O)[C@H](CCCCN)NC(=O)[C@H](CCCCN)NC(=O)[C@@H]3CSSC[C@@H](C(=O)N[C@H](C(=O)N4CCC[C@H]4C(=O)N[C@@H](CCCCN)C(=O)O)[C@@H](C)O)NC(=O)[C@H](Cc4c[nH]cn4)NC(=O)[C@H](CSSC[C@H](NC(=O)[C@H](Cc4cccc5ccccc45)NC(=O)[C@H](CCCNC(=N)N)NC(=O)[C@H](CO)NC1=O)C(=O)N[C@@H](CC(C)C)C(=O)N[C@@H](CCC(=O)O)C(=O)N1CCC[C@H]1C(=O)N3)NC(=O)[C@H](CCCCN)NC(=O)CNC(=O)[C@H](CC(N)=O)NC(=O)[C@H](CCSC)NC2=O [Q13Nal] (H-GVIINVKCKISR[1Nal]CLEPCKKAGMRFGKCMNGKCHCTPK-OH; disulfide 8-28, 14-33, 18-35)	–	–	< 0.00152	0.0134	–
